Data as given in patent publication US10036047B2, “Methods for hydroxylating phenylpropanoids” (University of Georgia Research Foundation, Inc., priority 2013, dated 2018).
Several values for one entry are separate records, joined by “and”; a condition that tells them apart may be missing. Identical values can stand only once. Like-named read-outs stand apart in the source and are kept apart here.

Tests used:
HpaBC [1] = target: T1, HpaBC (Escherichia coli, UniProt Q57160); assay: HpaBC substrates screening: feeding of E. coli strain over-expressing HpaBC; assay type: cell-based; details: 200 mg/L substrate, additional 10 hour incubation
T1 construct: expressed in transfected cells; host or cells: E. coli strain harboring pZE-HpaBC
Method: The E. coli strain harboring pZE-HpaBC was pre-inoculated into LB liquid medium containing ampicillin (100 μg/ml) and grown overnight at 37° C. Then 200 μl of the inoculum was transferred into 20 ml of fresh M9Y medium. The E. coli cells were grown at 37° C. till the OD600 values reached around 0.6 and then transferred to 30° C. and induced by 0.5 mM IPTG.
As the initial step towards examining the activity, we constructed a high-copy number plasmid co-expressing hpaB and hpaC (pZE-HpaBC) and introduced it into E. coli. The resulting strain was cultivated and induced with IPTG for enzyme expression for 3 hours, after which 200 mg/L of substrate was added into the cultures. After additional 10 hour incubation, we analyzed the cell-free broth by HPLC. […] We further used naringenin to explore the substrate tolerance limit of HpaBC. […] The three new peaks were collected from HPLC for mass spectrum analysis.
T1 sequence (Q57160 whole entry): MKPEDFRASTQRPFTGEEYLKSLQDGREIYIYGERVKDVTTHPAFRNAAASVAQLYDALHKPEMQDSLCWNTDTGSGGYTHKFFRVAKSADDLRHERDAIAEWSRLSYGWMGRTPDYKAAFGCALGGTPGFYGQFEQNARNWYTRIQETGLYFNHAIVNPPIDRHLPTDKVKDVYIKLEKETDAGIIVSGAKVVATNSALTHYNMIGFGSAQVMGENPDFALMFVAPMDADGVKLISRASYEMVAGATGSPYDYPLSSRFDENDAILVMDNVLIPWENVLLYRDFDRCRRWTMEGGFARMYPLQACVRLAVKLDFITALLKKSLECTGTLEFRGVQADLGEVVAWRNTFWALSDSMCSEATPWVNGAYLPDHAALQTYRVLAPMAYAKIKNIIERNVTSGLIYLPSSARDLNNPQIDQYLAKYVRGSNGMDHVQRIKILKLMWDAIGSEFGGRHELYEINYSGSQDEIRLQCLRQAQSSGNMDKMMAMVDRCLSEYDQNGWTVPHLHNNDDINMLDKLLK

HpaBC [2] = target: T2, HpaBC (Escherichia coli, UniProt Q57160); assay type: biochemical; details: for kcat: kcat=Vmax/[E]
T2 sequence (Q57160 2-520): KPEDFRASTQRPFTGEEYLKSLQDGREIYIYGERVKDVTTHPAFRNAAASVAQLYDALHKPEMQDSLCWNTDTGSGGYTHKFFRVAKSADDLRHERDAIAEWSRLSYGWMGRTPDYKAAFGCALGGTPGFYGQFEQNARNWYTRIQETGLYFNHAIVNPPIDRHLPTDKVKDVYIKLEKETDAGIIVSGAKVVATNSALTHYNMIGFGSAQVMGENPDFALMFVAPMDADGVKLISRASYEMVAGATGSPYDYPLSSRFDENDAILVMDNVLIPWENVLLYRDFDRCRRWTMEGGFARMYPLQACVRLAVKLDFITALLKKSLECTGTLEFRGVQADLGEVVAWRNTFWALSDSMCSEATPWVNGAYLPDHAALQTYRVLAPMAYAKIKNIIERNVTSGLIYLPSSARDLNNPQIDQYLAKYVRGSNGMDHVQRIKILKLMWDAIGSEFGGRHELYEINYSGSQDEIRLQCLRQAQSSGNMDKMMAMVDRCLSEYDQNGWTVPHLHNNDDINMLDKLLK
Method: The E. coli strain was transformed with pZE-His7HpaB and pZE-His7HpaC separately. The fresh transformants were pre-inoculated in LB medium containing 100 μg/ml ampicillin and grown at 37° C. aerobically overnight. In the following day, the pre-inoculums were transferred into 50 ml of fresh LB medium at a ratio of 1:100. The cultures were cultivated at 37° C. till the OD600 values reached about 0.6 and then induced by 0.5 mM IPTG. […] The BCA kit (Pierce Chemicals) was used to estimate protein concentrations. […] The HpaBC enzyme assays were carried out according to the protocol described by Louie et al. with minor modifications (Louie et al., 2003. Biochemistry (Mosc) 42(24):7509-17). The 1 ml reaction system contains KPi Buffer (20 mM, pH=7.0), FAD (10 μM), NADH (1 mM), HpaB (0.5 μM), HpaC (0.5 μM), substrates (from 10 to 1000 μM). […] The reaction rates were calculated according to the product formation and substrate consumption, which were measured by HPLC. Apparent kinetic parameters were determined by non-linear regression of the Michaelis-Menten equation using OriginPro8™.
We further investigated and compared the kinetic parameters of HpaBC towards its native substrate 4HPA and the 3 non-native substrates. To do these, a multi-histidine tag was fused to the N-terminus of HpaB and HpaC, which were subsequently over-expressed and purified from E. coli. The enzyme complex was reconsituted in vitro for enzyme assays (FIG. 5).

HpaBC [3] = target: T1, HpaBC; assay: Whole-cell biocatalysis with E. coli cells over-expressing HpaBC; assay type: cell-based; details: for whole cell bioconversion of substrate into hydroxylated product: 500 mg/L substrate, about 3.3 g/L DCW, in 3 h
Method: The E. coli strain harboring pZE-HpaBC was first cultivated in 50 ml LB liquid medium at 37° C. till OD600 values reached 0.6. Then the cells were transferred to 30° C. and induced with 0.5 mM IPTG for additional 6 hours. After that, cells were harvested, re-suspended in 15 ml M9Y medium (0D600=9.6), and incubated in a rotary shaker at 300 rpm. […] When the substrate concentrations fell below 0.5 g/L, additional 1 g/L substrates were supplemented. […] Samples were taken every few hours and analyzed by HPLC.
Whole-cell biocatalysis is an efficient and economical way to scale up enzyme-catalyzed reactions.

HpaBC [4] = target: T1, HpaBC; details: from p-coumaric acid; cited from earlier work
[5] = substrate: O=c1ccc2ccc(O)cc2o1; assay: purified protein, by the assay type; details: other: apparent, HpaB 0.5 μM, HpaC 0.5 μM, pH 7.0, 30° C.
[6] = substrate: Oc1ccc(/C=C/c2cc(O)cc(O)c2)cc1; assay: purified protein, by the assay type; details: other: apparent, HpaB 0.5 μM, HpaC 0.5 μM, pH 7.0, 30° C.

With `O=c1ccc2ccc(O)cc2o1` [Umbelliferone, umbelliferone] the “substrate consumption in culture (HPLC)” value (HpaBC [1]) was “completely consumed”, the kcat (HpaBC [2]; apparent, pH 7.0, 30° C.) was 0.0667 s⁻¹ and the “whole cell bioconversion of substrate into hydroxylated product” value (HpaBC [3]) was “completely converted”. The “whole-cell conversion efficiency relative to resveratrol” value (HpaBC [3]; umbelliferone vs resveratrol) was “about 3 fold”.

With `O=c1ccc2cc(O)c(O)cc2o1` (single isomer, unassigned) [esculetin] the maximum product titer (HpaBC [3]; end of 18 h, fed substrate, 1.5 mM ascorbic acid) was 2.7 g/L and 15.5 mM and the “highest hydroxylation rate (product formation)” value (HpaBC [3]; initial 2 h, 1.5 g/L initial substrate) was 298.1 μM/h/OD.

For `O=C1C[C@@H](c2ccc(O)cc2)Oc2cc(O)cc(O)c21` [naringenin], the “substrate consumption in culture (HPLC)” value (HpaBC [1]) was “majority of naringenin was left unconverted” and the “activity of HpaBC towards substrate” value (HpaBC [2]; kinetic parameters not determined) was “low activity”.

In the case of `O=C(O)/C=C/c1ccc(O)c(O)c1` [caffeic acid], the “caffeic acid production titer” value (HpaBC [4]) is listed as 3.82 g/L and 21.2 mM.

For `O=C1C[C@@H](c2ccc(O)c(O)c2)Oc2cc(O)cc(O)c21` (single isomer, unassigned) [eriodictyol], the product generated (HpaBC [3]; 150 mg/L naringenin fed, 10 h) was 16.7 mg/L and 58 μM.

For `Oc1ccc(/C=C/c2cc(O)cc(O)c2)cc1` [Resveratrol, 3,5,4′-trihydroxy-trans-stilbene], the “substrate consumption in culture (HPLC)” value (HpaBC [1]) was “completely consumed”, the kcat (HpaBC [2]; apparent, pH 7.0, 30° C.) was 0.0933 s⁻¹ and the “whole cell bioconversion of substrate into hydroxylated product” value (HpaBC [3]) was “completely converted”.

`O=C(O)Cc1ccc(O)cc1` [4-HPA, 4-hydroxyphenylacetate, reference compound] gave a Km (HpaBC [2]; apparent, HpaB 0.5 μM, HpaC 0.5 μM, pH 7.0, 30° C.) of 18.4 µM, a kcat (HpaBC [2]; apparent, pH 7.0, 30° C.) of 1.08 ± 0.015 s⁻¹ and a kcat (HpaBC [2]; apparent, pH 7.0, 30° C., listed as 4HPA) of 1.08 s⁻¹.

B1: HpaBC (Escherichia coli) (protein)
chain: KPEDFRASTQRPFTGEEYLKSLQDGREIYIYGERVKDVTTHPAFRNAAASVAQLYDALHKPEMQDSLCWNTDTGSGGYTHKFFRVAKSADDLRHERDAIAEWSRLSYGWMGRTPDYKAAFGCALGGTPGFYGQFEQNARNWYTRIQETGLYFNHAIVNPPIDRHLPTDKVKDVYIKLEKETDAGIIVSGAKVVATNSALTHYNMIGFGSAQVMGENPDFALMFVAPMDADGVKLISRASYEMVAGATGSPYDYPLSSRFDENDAILVMDNVLIPWENVLLYRDFDRCRRWTMEGGFARMYPLQACVRLAVKLDFITALLKKSLECTGTLEFRGVQADLGEVVAWRNTFWALSDSMCSEATPWVNGAYLPDHAALQTYRVLAPMAYAKIKNIIERNVTSGLIYLPSSARDLNNPQIDQYLAKYVRGSNGMDHVQRIKILKLMWDAIGSEFGGRHELYEINYSGSQDEIRLQCLRQAQSSGNMDKMMAMVDRCLSEYDQNGWTVPHLHNNDDINMLDKLLK
In the case of B1, the Km [5] is reported as 262.2 µM, the kcat [5] is reported as 0.0667 s⁻¹ and the kcat/Km [5] is reported as 254 M⁻¹ s⁻¹. For the same molecule, the Km [6] was 145.1 µM, the kcat [6] was 0.0933 s⁻¹ and the kcat/Km [6] was 643 M⁻¹ s⁻¹.
